# Columns and labels:
# PGC-1α/β KO myotubes = test: Gene expression (qPCR) and HIF-1α immunoblot in PGC-1α/β KO myotubes; type: cell-based, mice; conditions: for effect on induction of mitochondrial ETC genes by SIRT1 overexpression: PGC-1α/β knockout myocytes/myotubes; for effect on induction of mitochondrial ETC genes by SIRT1 overexpression / effect on NMN-induced expression of mitochondrially-encoded ETC genes: 1 mM DMOG or 10 μM DFO, 12 hours; for effect on NMN-induced expression of mitochondrially-encoded ETC genes: primary PGC-1α/β KO myotubes; for nuclear- and mitochondrial-encoded genes: EX-527 48 h
# Method: Primary myoblasts cells were isolated from WT, SIRT1 KO (Price et al., 2012) and PGC-1α/β KO (Zechner et al., 2010) mice as previously described (Price et al., 2012). WT and PGC-1α/β KO primary myoblasts were plated and allowed to differentiate into myotubes by replacing the media with low glucose DMEM supplemented with 2% horse serum (Sigma-Aldrich) for 4 days. After the differentiation the cells were infected with empty vector or flag-SIRT1 adenovirus as described before (Gerhart-Hines et al., 2007). Media was replaced with fresh DMEM supplemented with 2% horse serum (Sigma-Aldrich) for an additional 48 hr and, after that the cells were harvested for the different assays as described. To investigate the role of HIF-1α in genome asynchrony, PGC-1α/β KO primary myotubes were treated for 12 hours with 1 mM DMOG (Sigma) or 10 μM DFO (Sigma), 24 h after infection with empty vector of flag-SIRT1 adenovirus or after 12 h treatment with […] NMN (Sigma).
# (§1) RNA from skeletal muscle tissue and C2C12 cells were extracted with RNeasy mini kit (Qiagen) according to the instructions and quantified using the NanoDrop 1000 spectrophotometer (Thermo Scientific). cDNA was synthesized with the iSCRIP cDNA synthesis kit (BioRad) using 600 ng of RNA. Quantitative RT-PCR reactions were performed using 1 μM of primers and LightCycler® 480 SYBR Green Master (Roche) on an LightCycler® 480 detection system (Roche). Calculations were performed by a comparative method (2-ΔCT) using 18S as an internal control. For mtDNA analysis, total DNA was extracted with DNeasy blood and tissue kit (Qiagen). mtDNA was amplified using primers specific for the mitochondrial cytochrome c oxidase subunit 2 (COX2) gene and normalized to genomic DNA by amplification of the ribosomal protein s18 (rps18) nuclear gene. Primers were designed using the IDT software (IDT) and the primer sequences can be found in Table 1.
# (§2) Protein extracts from tissue or C2C12 cells were obtained by lysis in ice-cold lysis buffer (150 mM NaCl, 10 mM Tris HCl (pH 7.4), 1 mM EDTA, 1 mM EGTA, 1% Triton X-100, 0.5% NP-40) supplemented with a cocktail of protease and phosphatase inhibitors (Roche). Protein content was determined by the Bradford protein assay (Biorad), and 50 μg proteins were run on SDS-PAGE under reducing conditions. The separated proteins were then electrophoretically transferred to a polyvinylidene difluoride membrane (Perkin-Elmer). […] The immunostaining was detected using horseradish peroxidase-conjugated anti-rabbit or anti-mouse immunoglobulin for 1 h at room temperature.
# C2C12 myoblasts = test: mtDNA content and ETC gene expression in C2C12 myoblasts; type: cell-based
# Method: C2C12 cell line (ATCC) was cultured in low glucose Dulbecco's modified eagle medium (DMEM) (Invitrogen) supplemented with 10% FBS (Invitrogen) and a mix of antibiotic and antimycotic (Invitrogen). To inhibit SIRT1, cells were treated the vehicle (0.001% DMSO) or 10 μM EX-527 (Tocris) for 12 h. C2C12 myoblasts were infected with an empty or SIRT1 adenovirus as described before (Gerhart-Hines et al., 2007) and the media was replaced with fresh DMEM for additional 48 h, after that the cells were treated as described before. To test the effects of hypoxia and HIFα stabilization in genome asyncrony, C2C12 myoblasts were exposed to 1% oxygen for 16 h or treated with the vehicle (0.001% DMSO) or DMOG (Cayman) for the same period of time.
# as §1
# [1] = tested on: inflammation related markers (TNFa, IL-6, IL-18); test: qPCR of inflammation related markers in gastrocnemius; type: in vivo, C57BL/6J mice; conditions: 6-month-old mice, DMOG IP 300 mg/kg/day, 5 days
# Method: C57BL/6J mice of 3, 6, 22, or 24 months of age were obtained from the National Institutes of Aging mouse aging colony. Mice were acclimated for at least one-week prior to sacrifice. 3, 6, 22 and 24-month-old mice were given interperitoneal (IP) injections of 500 mg NMN/kg body weight per day or the equivalent volume of PBS for 7 consecutive days at 5:00 pm and 7:00 am on day 8 and sacrificed 4 hr after last injection. All animal studies followed the guidelines of and were approved by the Harvard Institutional Animal Care and Use Committee
# C57BL/6J mice of 6 months of age were given interperitoneal (IP) injections of 300 mg DMOG/kg body weight per day or the equivalent volume of PBS for 5 consecutive days. All animal studies followed the guidelines of and were approved by the Harvard Institutional Animal Care and Use Committee
# RNA from skeletal muscle and aorta were extracted with RNeasy mini kit (Qiagen) according to the instructions and quantified using the NanoDrop 1000 spectrophotometer (Thermo Scientific). cDNA was synthesized with the iSCRIP cDNA synthesis kit (BioRad) using 600 ng of RNA. Quantitative RT-PCR reactions were performed using 1 μM of primers and LightCycler® 480 SYBR Green Master (Roche) on an LightCycler® 480 detection system (Roche). Calculations were performed by a comparative method (2-ΔCT) using 18S as an internal control. […]
# TFAM promoter = TFAM promoter activity (luciferase assay) in primary WT myoblasts; type: cell-based, mouse
# Method: TFAM promoter, VHL promoter, HRE and c-Myc activity were determined using a luciferase-based system. Luciferase activity was measured using the Dual-Luciferase Reporter Assay System (Promega) with Renilla as the reference.
# TFAM promoter activity was evaluated using a TFAM promotes-luc plasmid. A fragment of the mouse Tfam promoter (1.4 kb upstream of the coding sequence) was cloned into a pGL4.15 vector (Promega). Luciferase activity was measured using the Dual-Luciferase Reporter Assay System (Promega) with Renilla as the reference 48 h after transfection.
# HIF-1α = test: DMOG treatment of SIRT1-tg mice (HIF-1α immunoblot, qPCR, ATP content in gastrocnemius); type: in vivo; conditions: DMOG IP 300 mg/kg/day, 5 days
# Method: Whole body SIRT1 overexpressor (SIRT1-tg) mice of 6 months of age were given interperitoneal (IP) injections of 300 mg DMOG/kg body weight per day or the equivalent volume of PBS for 5 consecutive days.
# ATP content was measured with a commercial kit according to the manufacturer's instructions (Roche).
# as §1, §2
# primary myoblasts = test: NAD+/NADH ratio and HIF-1α immunoblot in primary WT myoblasts treated with pyruvate or lactate; type: cell-based, mice; conditions: 10 mM lactate, 24 h
# Source text: FIG. 21 provides additional data related to the content of FIG. 14. FIG. 21A depicts HIF-1α target genes (PGK-1, Glut1, PDK1 and Vegfa) expression in gastrocnemius of WT and SIRT1 KO mice. Relative expression values were normalized to WT mice (n=5). FIG. 21B depicts hypoxia response element activity in primary myoblasts isolated from WT and SIRT1 KO mice and treated with or without DMOG. Relative luciferase activity was normalized to WT cells (n=6, *p<0.05 versus WT). FIG. 21C depicts a representative immunoblot of HIF-1α and Tubulin in PGC-1α/β KO myotubes treated with adenovirus overexpressing SIRT1 or empty vector as well as treatment with DMSO or with HIF stabilizing compound DMOG. FIG. 21D depicts NAD+/NADH ration measured in primary WT myoblasts treated with either 10 mM pyruvate, 10 mM lactate or vehicle for 24 h (n=4). […] FIG. 21J depicts mitochondrial DNA content analyzed by qPCR in control, HIF-1α DPA or HIF-2α DPA C2C12 cells treated with adenovirus overexpressing SIRT1 or empty vector. […] FIG. 21K depicts ARNT mRNA analyzed by qPCR in C2C12 cells infected with ARNT or nontargeting shRNA. […] FIG. 21L depicts mitochondrial DNA content analyzed by qPCR in C2C12 cells infected with ARNT or nontargeting shRNA. […] FIG. 21M depicts ND1, Cytb, COX1 and ATP6 mRNA analyzed by qPCR in C2C12 cells infected with ARNT or nontargeting shRNA. […] Values are expressed as mean±SEM. […]
# [2] = C2C12 myoblasts treated with DMOG, 16 h
structure (smiles),measurement,setting,value
"CC(=O)N(O)CCCCCNC(=O)CCC(=O)N(O)CCCCCNC(=O)CCC(=O)N(O)CCCCCN [DFO, desferrioxamine]",effect on induction of mitochondrial ETC genes by SIRT1 overexpression,PGC-1α/β KO myotubes,completely blocked
same,effect on NMN-induced expression of mitochondrially-encoded ETC genes,PGC-1α/β KO myotubes,completely abolished
"COC(=O)CNC(=O)C(=O)OC [DMOG, dimethyloxaloylglycine]",effect on NAD (pyruvate) mediated increases in mitochondrial-encoded genes,"PGC-1α/β KO myotubes; PGC-1α/β KO cells, pyruvate in the presence of DMOG",can be inhibited
same,HIF-1α protein,"PGC-1α/β KO myotubes; PGC-1α/β KO myotubes, DMOG (FIG. 21C)",stabilizes HIF-1α protein
same,effect on induction of mitochondrial ETC genes by SIRT1 overexpression,PGC-1α/β KO myotubes,completely blocked
same,expression of mitochondrial-encoded genes,"PGC-1α/β KO myotubes; PGC-1α/β knockout myotubes, DMOG compared to vehicle control",induced a decline
same,effect on NMN-induced expression of mitochondrially-encoded ETC genes,PGC-1α/β KO myotubes,completely abolished
same,expression of mitochondrially-encoded ETC genes,C2C12 myoblasts; [2],specific decline
same,mtDNA content,C2C12 myoblasts; [2],specific decline
same,"inflammation related markers (TNFalpha, IL-6, Il-1b and IL-18) in the skeletal muscle",[1],induces inflammatory markers in the skeletal muscle
same,full length TFAM promoter activity,TFAM promoter; DMOG vs vehicle (DMSO),reduces the full length TFAM promoter activity
same,TFAM promoter activity with c-Myc consensus sequence mutation,"TFAM promoter; DMOG, absence of the c-Myc binding site",does not have an additive effect
same,HIF-1α protein,HIF-1α,increase HIF-1α
same,increase in ATP levels observed in SIRT1-tg mice,HIF-1α,abolished
same,increase in the expression of mitochondrial-encoded genes observed in SIRT1-tg mice,HIF-1α,abolished the increase
NC(=O)C1CCCc2c1[nH]c1ccc(Cl)cc21 (centres unmarked) [EX-527],nuclear- and mitochondrial-encoded genes,PGC-1α/β KO myotubes; PGC-1α/β KO myotubes reconstituted with PGC-1α T177A/S538A mutant,only the mitochondrial-encoded genes decreased
same,nuclear- and mitochondrial-encoded genes,PGC-1α/β KO myotubes; PGC-1α/β KO myotubes reconstituted with WT PGC-1α,decreased both nuclear- and mitochondrial-encoded genes
same,genome asynchrony,"C2C12 myoblasts; C2C12 cells, 10 μM EX-527, 12 h",induced
CC(O)C(=O)O (centres unmarked) [lactate],HIF-1α protein,primary myoblasts,induces HIF-1α protein stabilization
same,NAD+/NADH ratio,primary myoblasts,decreasing

# From patent US20150265642A1, “NAD BIOSYNTHESIS AND PRECURSORS IN THE PREVENTION AND TREATMENT OF INFLAMMATION” (PRESIDENT AND FELLOWS OF HARVARD COLLEGE, priority 2013, published 2015)
